Measured values from paper PMC6151550, “Inhibitory Effect of Selaginellins from Selaginella tamariscina (Beauv.) Spring against Cytochrome P450 and Uridine 5′-Diphosphoglucuronosyltransferase Isoforms on Human Liver Microsomes” (Molecules : A Journal of Synthetic Chemistry and Natural …, 2017).

Tests used:
Format in all cases: in vitro ADME
[1] = molecular target: T1, CYP2C9 (Homo sapiens, UniProt P11712); assay: CYP2C9 inhibition (tolbutamide 4-hydroxylase) in human liver microsomes, substrate cocktail LC-MS/MS; conditions: IC50 P450 isoform 2C9, pooled HLMs 0.25 mg/mL, tolbutamide 100 μM
T1 construct: the incubation mixtures containing pooled HLMs (0.25 mg/mL, H2630, Xenotech); tissue Xenotech H2630; host or cells: pooled human liver microsomes
Description: (§1) The inhibitory effects of two selaginellins on the metabolism of ten P450 probe substrates were evaluated using previously reported method with minor modification. Phenacetin O-deethylase, coumarin 7-hydroxylase, bupropion 4-hydroxylase, amodiaquine N-deethylase, tolbutamide 4-hydroxylase, omeprazole 5-hydroxylase, dextromethorphan O-demethylase, chlorzoxazone 6-hydroxylase and midazolam 1′-hydroxylase activities were determined as probe activities for CYP1A2, CYP2A6, CYP2B6, CYP2C8, CYP2C9, CYP2C19, CYP2D6, CYP2E1 and […], respectively, using substrate cocktail incubation and tandem mass spectrometry (Table 2). Selaginellins were dissolved in methanol. The final concentrations of organic solvent (methanol) for the cocktail incubation conditions in all experiments were 1.0% (v/v). In brief, the incubation mixtures containing pooled HLMs (0.25 mg/mL, H2630, Xenotech), P450 probe substrate cocktail, and inhibitor (0, 0.5, 2, 5, 20 and 50 μM) were preincubated at 37 °C for 5 min. […] After mixing and centrifugation, aliquots were analyzed by liquid chromatography-tandem mass spectrometry (LC-MS/MS) as previous described. The CYP2J2 inhibitory effects of two selaginellins were also evaluated in pooled HLMs using previously reported method. […]

[2] = molecular target: T2, CYP2E1 (Homo sapiens, UniProt P05181); assay: CYP2E1 inhibition (chlorzoxazone 6-hydroxylase) in human liver microsomes, substrate cocktail LC-MS/MS
T2 construct: the incubation mixtures containing pooled HLMs (0.25 mg/mL, H2630, Xenotech); tissue Xenotech H2630; host or cells: pooled human liver microsomes
Description: as §1

[3] = molecular target: T3, CYP2J2 (Homo sapiens, UniProt P51589); assay: CYP2J2 inhibition (astemizole O-demethylation) in pooled human liver microsomes, LC-MS/MS; conditions: IC50 P450 isoform 2J2, pooled HLMs 0.25 mg/mL, astemizole 1.0 μM
T3 construct: from tissue; host or cells: pooled human liver microsomes
T3 sequence (P51589 1-502): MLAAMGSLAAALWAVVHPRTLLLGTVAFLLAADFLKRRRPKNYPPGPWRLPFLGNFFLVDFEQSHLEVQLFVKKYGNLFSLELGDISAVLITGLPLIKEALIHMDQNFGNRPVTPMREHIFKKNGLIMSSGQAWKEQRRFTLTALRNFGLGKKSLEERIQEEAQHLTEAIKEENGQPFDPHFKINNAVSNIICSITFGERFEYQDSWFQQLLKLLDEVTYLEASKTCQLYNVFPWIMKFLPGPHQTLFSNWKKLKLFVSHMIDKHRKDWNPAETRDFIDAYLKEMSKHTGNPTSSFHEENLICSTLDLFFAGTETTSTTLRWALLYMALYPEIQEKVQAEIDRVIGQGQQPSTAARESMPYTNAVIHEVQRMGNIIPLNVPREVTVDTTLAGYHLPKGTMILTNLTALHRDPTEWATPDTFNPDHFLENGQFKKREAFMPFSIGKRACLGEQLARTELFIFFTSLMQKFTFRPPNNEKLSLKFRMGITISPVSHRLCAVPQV
Description: as §1

[4] = molecular target: T4, UGT1A9 (Homo sapiens, UniProt O60656); assay: UGT1A9 inhibition (mycophenolic acid glucuronidation) in human liver microsomes, cocktail LC-MS/MS
T4 construct: from tissue; host or cells: human liver microsomes
T4 sequence (O60656 26-530): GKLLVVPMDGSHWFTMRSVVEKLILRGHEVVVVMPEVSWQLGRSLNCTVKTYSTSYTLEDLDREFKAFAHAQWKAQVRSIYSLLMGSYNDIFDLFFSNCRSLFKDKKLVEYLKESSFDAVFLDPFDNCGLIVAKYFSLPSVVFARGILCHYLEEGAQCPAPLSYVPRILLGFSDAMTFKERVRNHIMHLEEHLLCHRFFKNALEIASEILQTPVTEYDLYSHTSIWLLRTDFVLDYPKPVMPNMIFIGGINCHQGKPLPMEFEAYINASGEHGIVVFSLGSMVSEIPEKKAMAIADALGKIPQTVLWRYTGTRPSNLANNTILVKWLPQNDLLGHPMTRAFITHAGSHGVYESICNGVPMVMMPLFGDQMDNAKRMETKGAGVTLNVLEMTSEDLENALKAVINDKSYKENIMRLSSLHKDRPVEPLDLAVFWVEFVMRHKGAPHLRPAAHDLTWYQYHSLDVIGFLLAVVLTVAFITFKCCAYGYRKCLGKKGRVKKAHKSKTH
Description: The inhibitory effects of two selaginellins on the metabolism of six UGT probe substrates were evaluated using previously reported method with minor modification. In brief, HLMs (0.25 mg/mL) were activated by incubation in the presence of alamethicin (25 μg/mL) for 15 min on ice. After the addition of UGT isoform-selective substrates and selaginellins (0, 0.5, 2, 5, 20 and 50 μM) the final concentrations of organic solvent (methanol) for the cocktail incubation conditions were 1.0% (v/v). The incubation reaction mixtures were pre-incubated for 5 min. The reaction was initiated by the addition of 5 mM UDPGA and further incubated for 60 min. All reactions were terminated by adding ice-cold acetonitrile containing estrone glucuronide (IS). After mixing and centrifugation, aliquots were injected into a LC-MS/MS as described previously (Table 2). All microsomal incubations were performed in triplicate.
The IC50 values (concentration of the inhibitor causing 50% inhibition of the original enzyme activity) were calculated using WinNonlin software (Pharsight, Mountain View, CA, USA): percentage of control activity = 100 × [1 − (I/(I + IC50))], where I is the inhibitor concentration, and IC50 is the inflection point on the curve.

T2 sequence (P05181 whole entry): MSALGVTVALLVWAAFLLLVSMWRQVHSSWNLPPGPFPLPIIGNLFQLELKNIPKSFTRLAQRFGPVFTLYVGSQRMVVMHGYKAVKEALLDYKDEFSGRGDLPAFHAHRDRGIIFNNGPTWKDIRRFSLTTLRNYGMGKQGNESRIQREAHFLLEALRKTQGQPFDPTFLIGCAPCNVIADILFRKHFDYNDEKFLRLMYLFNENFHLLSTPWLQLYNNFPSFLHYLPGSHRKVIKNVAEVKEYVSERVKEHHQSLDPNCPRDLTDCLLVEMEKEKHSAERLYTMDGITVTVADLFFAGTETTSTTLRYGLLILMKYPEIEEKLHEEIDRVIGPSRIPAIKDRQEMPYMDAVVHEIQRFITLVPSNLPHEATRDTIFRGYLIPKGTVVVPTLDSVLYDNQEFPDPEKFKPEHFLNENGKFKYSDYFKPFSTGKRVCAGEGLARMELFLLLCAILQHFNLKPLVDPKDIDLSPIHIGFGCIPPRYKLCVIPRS
T1 sequence (P11712 whole entry, canonical isoform): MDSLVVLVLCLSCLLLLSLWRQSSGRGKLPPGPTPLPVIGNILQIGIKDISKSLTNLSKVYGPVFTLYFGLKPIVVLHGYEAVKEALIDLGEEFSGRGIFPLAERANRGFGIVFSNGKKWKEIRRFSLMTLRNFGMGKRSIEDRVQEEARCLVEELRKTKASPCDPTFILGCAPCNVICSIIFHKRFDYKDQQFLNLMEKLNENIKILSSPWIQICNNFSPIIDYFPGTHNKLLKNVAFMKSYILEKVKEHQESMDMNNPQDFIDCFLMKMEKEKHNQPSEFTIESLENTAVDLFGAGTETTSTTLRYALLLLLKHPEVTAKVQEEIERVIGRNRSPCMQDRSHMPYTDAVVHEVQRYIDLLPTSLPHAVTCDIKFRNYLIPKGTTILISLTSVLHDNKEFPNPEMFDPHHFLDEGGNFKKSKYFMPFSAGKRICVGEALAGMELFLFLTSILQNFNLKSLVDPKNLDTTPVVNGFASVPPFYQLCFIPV

Compound | IC50 [1] | IC50 [2] | IC50 [3] | IC50 [4]
COc1ccc(C(=C2C=CC(=O)C=C2)c2c(-c3ccc(O)cc3)ccc(CO)c2C#Cc2ccc(O)cc2)cc1 [Selaginellin M] | 3.9 µM | > 50 µM | 2.7 µM | 6.5 µM
O=C1C=CC(=C(c2ccc(O)cc2)c2c(-c3ccc(O)cc3)ccc(CO)c2C#Cc2ccc(O)cc2)C=C1 [Selaginellin] | 1.2 µM | 38.5 µM | 0.8 µM | 8.7 µM
